US5072032A, “Preparation and use of thiophosphonates and thio-analogues of phosphonoformic acid” (priority 1989, dated 1991)
Where two headings read alike, the source gives them in different places.

Assays:
HSV-1 DNA polymerase = molecular target: T1, HSV-1 DNA polymerase (Human herpesvirus 1, UniProt P04293); assay: Viral polymerase inhibition, HSV-1; type: biochemical
T1 construct: made in house
Description: Viral DNA polymerases (HSV-1, HSV-2, EBV) were purified by previously published methods (Derce, D. K. F. Bastow, and Y. C. Cheng (1982) J. Boil. Chem. 257:10251-10260; Ostrander, M., and Y. C. Cheng (1980) Biochim. Biophys. Acta 609:232-245; Tan, R. S., A. Datta. and Y. C. Cheng (1982) J. Virol. 44:893-899). These procedures generally included sequential chromatography on DEAE-cellulose. HIV reverse transcriptase was purified by antibody affinity column chromatography as descrbed (Starnes. M. C. and Y. C. Cheng (1989) J. Biol. Chem. 264:7073-7077). The purified enzymes were dialyzed against and stored in 50 mM Tris-HCl (pH 7.5) containing 1 mM each of DTT, EDTA and PMSF plus 30% glycerol. Mammalian DNA polymerases alpha, beta, gamma, and delta were partially purified from K562 celles (chronic myelogenous leukemia tissue culture line). Briefly, washed cell pellets were extracted and passed throgh DEAE-cellulose in the presence of 300 mM KPO4 (pH 7.5) as previously described (Starnes, M. C., and Y. C. Cheng (1987) J. Biol. Chem 282:988-981) to remove DNA. The column flow-through fractions were dialyzed against buffer which contained 50 mM Tris-HCl (pH 7.5), and fractionated on a single-stranded DNA-cellulose column with a 0-1M KCl gradient. […]

HSV-2 DNA polymerase = molecular target: T2, HSV-2 DNA polymerase (Human herpesvirus 2, UniProt P89453); assay: Viral polymerase inhibition, HSV-2; type: biochemical
T2 construct: made in house
Description: (§1) Viral DNA polymerases (HSV-1, HSV-2, EBV) were purified by previously published methods (Derce, D. K. F. Bastow, and Y. C. Cheng (1982) J. Boil. Chem. 257:10251-10260; Ostrander, M., and Y. C. Cheng (1980) Biochim. Biophys. Acta 609:232-245; Tan, R. S., A. Datta. and Y. C. Cheng (1982) J. Virol. 44:893-899). These procedures generally included sequential chromatography on DEAE-cellulose. HIV reverse transcriptase was purified by antibody affinity column chromatography as descrbed (Starnes. M. C. and Y. C. Cheng (1989) J. Biol. Chem. 264:7073-7077). The purified enzymes were dialyzed against and stored in 50 mM Tris-HCl (pH 7.5) containing 1 mM each of DTT, EDTA and PMSF plus 30% glycerol. Mammalian DNA polymerases alpha, beta, gamma, and delta were partially purified from K562 celles (chronic myelogenous leukemia tissue culture line). Briefly, washed cell pellets were extracted and passed throgh DEAE-cellulose in the presence of 300 mM KPO4 (pH 7.5) as previously described (Starnes, M. C., and Y. C. Cheng (1987) J. Biol. Chem 282:988-981) to remove DNA. The column flow-through fractions were dialyzed against buffer which contained 50 mM Tris-HCl (pH 7.5), and fractionated on a single-stranded DNA-cellulose column with a 0-1M KCl gradient.
Standard assays were run at 37° C. and contained: 50 mM Tris, pH b 8.0, 0.5 mM DTT, 8 mM MgCl2, 100 μg/mL BSA, 150 μg/mL gapped calf thymus DNA, 100 μM each dATP, dCTP, dGTP, 10 .parallel.M [^3 H]-dTTP, and 1-5 .parallel.L enzyme in a final volume of 50 .parallel.L. Modified assays for pH dependence inhibition studies with PFA (1) and α--oxo phosphonates (4 and 5) contained 50 mM Hepes, pH 8.2-6.5, 8 mM MgCl2, 100 mM KCl, 100 μg/ml BSA, 0.5 A260 units/ml of poly(rA).(dT)10, 100 μM [^3 H]dTTP, and 1.5 .parallel.L enzyme in a final volume of 50 μL. Samples were processed as described above.

human DNA polymerase α = molecular target: T3, human DNA polymerase α (Homo sapiens, UniProt P09884); assay: Human DNA polymerase inhibition, alpha; type: biochemical; conditions: for remaining activity at 100 µM: read-out: % Control at 100 μM ± S.D.
T3 construct: Mammalian DNA polymerases alpha, beta, gamma, and delta were partially purified from K562 celles; endogenous in cells; host or cells: K562 (chronic myelogenous leukemia tissue culture line)
Description: as §1
(§2) In accordance with the teaching of the present invention similar enzyme inhibition assays were also conducted with respect to mammalian enzymes, more particularly, human DNA polymerase.

human DNA polymerase δ = assay: Human DNA polymerase inhibition, delta; type: biochemical; conditions: Pol δ, "activated" DNA; for IC50: read-out: ID50 (the source's name)
Description: as §1, §2

[1] = Toxicity: cell density of uninfected H9 cultures; type: cell-based; conditions: human, h9 cells, 3 days, read-out: Cell Survival (%)
Protocol: (§3) In addition to testing the activity of TPFA against HIV enzyme, the activity against the virus itself was also determined in accordance with the following protocol. The experimental protocol involved incubatino of H9 lymphocytes (3.5×10^6 cells/ml) in the presence or absence of HIV-1 (HTLV-IIIB) for one hour at 37° C. Cells were washed thoroughly to remove unabsorbed virions and re-suspended at 4×10^5 cells/ml in culture medium. Aliquots (1 ml) were placed in wells of 24 well culture plates containing any equal volume of test compound (diluted in culture medium). After incubation for three days at 37° C., cell density of uninfected cultures was determined to assess toxicity of the test compound. A p24 antigen capture was used to determine the level of HIV infection in HIV treated cultures. The ability of test compounds to inhibit HIV replication was measured at different concentrations relative to infected, untreated cultures. Test compounds were considered to be active if p24 levels were <70% of infected, untreated cultures. Cytotoxicity in uninfect4ed H9 cells was not detected.

uninfected H9 cells = assay: Toxicity: cell density of uninfected H9 cultures; type: cell-based; conditions: 3 days
Protocol: as §3

T3 sequence (P09884 whole entry): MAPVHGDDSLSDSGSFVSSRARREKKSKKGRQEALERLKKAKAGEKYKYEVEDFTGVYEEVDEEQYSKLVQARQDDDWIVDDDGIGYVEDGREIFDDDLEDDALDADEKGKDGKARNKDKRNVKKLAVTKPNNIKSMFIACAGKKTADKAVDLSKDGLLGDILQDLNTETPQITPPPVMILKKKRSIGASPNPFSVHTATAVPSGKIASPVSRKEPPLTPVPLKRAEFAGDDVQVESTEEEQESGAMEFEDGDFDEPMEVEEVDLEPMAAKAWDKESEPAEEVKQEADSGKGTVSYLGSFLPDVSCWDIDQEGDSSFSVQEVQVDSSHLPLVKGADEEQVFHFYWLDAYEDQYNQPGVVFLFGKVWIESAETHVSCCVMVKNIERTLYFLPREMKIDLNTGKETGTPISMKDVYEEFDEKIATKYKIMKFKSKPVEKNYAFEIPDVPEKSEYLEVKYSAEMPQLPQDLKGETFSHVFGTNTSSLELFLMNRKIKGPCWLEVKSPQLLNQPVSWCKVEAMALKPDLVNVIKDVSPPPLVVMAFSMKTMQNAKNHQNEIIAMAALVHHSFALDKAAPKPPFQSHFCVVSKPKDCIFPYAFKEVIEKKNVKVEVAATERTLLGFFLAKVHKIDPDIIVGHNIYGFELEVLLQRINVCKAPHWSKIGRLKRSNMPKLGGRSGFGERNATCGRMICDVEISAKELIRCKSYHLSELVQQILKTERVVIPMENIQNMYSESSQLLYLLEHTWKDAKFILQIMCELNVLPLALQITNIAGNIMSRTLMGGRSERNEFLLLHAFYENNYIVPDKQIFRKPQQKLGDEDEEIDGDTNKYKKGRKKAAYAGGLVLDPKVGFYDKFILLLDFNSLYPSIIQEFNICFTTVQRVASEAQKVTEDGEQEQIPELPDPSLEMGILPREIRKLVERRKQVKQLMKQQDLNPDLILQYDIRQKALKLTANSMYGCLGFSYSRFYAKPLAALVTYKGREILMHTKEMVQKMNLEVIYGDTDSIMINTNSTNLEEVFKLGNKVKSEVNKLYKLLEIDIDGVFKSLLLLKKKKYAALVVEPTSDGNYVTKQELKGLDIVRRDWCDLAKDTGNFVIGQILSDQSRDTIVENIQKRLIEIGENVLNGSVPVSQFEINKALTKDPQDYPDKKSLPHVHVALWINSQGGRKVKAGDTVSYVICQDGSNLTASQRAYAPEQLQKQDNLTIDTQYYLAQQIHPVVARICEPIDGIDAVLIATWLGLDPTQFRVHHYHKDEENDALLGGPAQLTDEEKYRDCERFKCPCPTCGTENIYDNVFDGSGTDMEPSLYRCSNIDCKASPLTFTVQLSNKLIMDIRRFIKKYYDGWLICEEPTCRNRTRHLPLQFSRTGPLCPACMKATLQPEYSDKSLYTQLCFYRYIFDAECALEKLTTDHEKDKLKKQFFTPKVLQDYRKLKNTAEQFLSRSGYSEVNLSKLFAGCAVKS
T3 sequence (Q14181 whole entry partner): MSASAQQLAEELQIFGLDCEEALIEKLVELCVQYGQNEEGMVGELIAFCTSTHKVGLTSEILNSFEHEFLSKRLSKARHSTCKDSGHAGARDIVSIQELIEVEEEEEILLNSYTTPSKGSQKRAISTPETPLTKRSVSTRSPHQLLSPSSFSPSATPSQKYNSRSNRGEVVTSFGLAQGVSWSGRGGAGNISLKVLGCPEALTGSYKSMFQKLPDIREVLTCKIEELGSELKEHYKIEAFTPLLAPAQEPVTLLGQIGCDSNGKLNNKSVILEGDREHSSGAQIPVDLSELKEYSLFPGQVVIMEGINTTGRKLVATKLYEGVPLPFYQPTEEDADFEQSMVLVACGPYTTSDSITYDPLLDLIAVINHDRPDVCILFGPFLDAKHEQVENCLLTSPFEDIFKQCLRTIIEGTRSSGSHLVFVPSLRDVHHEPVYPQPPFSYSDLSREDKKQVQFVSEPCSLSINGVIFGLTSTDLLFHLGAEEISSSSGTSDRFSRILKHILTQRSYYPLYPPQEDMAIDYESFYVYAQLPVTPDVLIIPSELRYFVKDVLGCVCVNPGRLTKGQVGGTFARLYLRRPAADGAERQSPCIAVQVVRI
T3 sequence (P49642 whole entry partner): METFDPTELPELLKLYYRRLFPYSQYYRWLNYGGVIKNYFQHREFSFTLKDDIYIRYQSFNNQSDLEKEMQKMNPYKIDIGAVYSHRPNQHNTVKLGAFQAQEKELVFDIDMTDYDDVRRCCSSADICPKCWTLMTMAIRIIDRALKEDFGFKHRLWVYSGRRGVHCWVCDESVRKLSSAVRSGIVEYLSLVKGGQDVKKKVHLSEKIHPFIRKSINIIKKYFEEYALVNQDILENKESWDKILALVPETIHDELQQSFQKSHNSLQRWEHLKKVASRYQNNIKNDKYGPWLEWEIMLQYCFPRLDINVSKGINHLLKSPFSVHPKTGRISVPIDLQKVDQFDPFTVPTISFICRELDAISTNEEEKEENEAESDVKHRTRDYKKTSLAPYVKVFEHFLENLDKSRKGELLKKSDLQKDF
T3 sequence (P49643 whole entry partner): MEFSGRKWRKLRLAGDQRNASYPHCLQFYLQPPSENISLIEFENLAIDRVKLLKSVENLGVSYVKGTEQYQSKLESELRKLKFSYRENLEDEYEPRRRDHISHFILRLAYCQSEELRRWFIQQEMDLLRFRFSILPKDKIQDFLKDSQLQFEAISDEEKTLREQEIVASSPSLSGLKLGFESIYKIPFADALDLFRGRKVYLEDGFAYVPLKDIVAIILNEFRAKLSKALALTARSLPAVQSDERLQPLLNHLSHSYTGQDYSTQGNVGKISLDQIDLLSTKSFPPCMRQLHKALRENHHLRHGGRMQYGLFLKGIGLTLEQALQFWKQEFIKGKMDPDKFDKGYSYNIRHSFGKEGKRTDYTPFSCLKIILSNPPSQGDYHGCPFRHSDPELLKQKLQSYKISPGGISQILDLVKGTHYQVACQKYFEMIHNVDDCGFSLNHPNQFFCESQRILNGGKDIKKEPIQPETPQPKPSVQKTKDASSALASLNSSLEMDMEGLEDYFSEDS
T2 sequence (P89453 whole entry): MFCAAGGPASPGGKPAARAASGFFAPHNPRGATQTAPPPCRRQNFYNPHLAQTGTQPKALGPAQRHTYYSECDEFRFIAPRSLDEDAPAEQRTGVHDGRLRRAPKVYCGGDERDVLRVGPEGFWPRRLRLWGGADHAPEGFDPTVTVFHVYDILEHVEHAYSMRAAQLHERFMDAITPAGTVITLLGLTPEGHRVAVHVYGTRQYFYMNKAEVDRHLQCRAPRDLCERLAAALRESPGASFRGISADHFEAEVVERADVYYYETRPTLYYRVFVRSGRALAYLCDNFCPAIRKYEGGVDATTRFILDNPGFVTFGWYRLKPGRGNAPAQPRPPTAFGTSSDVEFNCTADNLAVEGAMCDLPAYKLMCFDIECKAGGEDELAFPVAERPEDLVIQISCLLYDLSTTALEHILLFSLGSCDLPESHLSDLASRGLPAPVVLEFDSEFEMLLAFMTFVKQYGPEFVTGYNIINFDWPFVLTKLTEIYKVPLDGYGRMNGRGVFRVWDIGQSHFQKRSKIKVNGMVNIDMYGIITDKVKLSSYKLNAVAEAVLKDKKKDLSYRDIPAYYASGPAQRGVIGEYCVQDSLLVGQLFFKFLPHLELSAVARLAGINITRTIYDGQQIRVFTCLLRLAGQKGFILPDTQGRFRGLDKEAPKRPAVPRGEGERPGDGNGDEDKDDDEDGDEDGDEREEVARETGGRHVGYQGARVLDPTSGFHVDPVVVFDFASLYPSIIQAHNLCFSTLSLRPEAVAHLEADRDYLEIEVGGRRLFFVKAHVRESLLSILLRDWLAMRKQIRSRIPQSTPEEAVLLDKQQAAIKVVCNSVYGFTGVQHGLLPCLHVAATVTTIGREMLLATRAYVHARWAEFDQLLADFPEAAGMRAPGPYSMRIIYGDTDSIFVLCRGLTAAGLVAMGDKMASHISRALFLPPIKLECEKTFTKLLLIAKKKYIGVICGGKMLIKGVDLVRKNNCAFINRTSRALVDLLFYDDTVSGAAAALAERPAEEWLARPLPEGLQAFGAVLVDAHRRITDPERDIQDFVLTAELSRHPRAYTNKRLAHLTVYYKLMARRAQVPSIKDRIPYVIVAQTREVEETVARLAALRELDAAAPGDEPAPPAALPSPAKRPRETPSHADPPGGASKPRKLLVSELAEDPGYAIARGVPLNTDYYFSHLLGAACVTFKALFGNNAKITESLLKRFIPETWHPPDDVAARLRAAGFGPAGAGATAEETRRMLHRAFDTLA

Molecule O=C(O)P(=O)(O)O [PFA, phosphonoformic acid] has an IC50 (HSV-1 DNA polymerase; HSV-1, "activated" DNA, read-out: ID50 (the source's name)) of 0.7 µM, an IC50 (HSV-2 DNA polymerase; HSV-2, "activated" DNA, read-out: ID50 (the source's name)) of 0.7 µM and a remaining activity at 100 µM (human DNA polymerase α; Pol α, 100 μM, "activated" DNA) of 16 ± 2%. For the same molecule, the IC50 (human DNA polymerase α; Pol α, "activated" DNA, read-out: ID50 (the source's name)) was 31 µM, the “% Control at 100 μM ± S.D.” value (human DNA polymerase δ) was 36 ± 3% and the IC50 (human DNA polymerase δ) was 71 µM. For the same molecule, the viability at 72 h ([1]; drug conc. 1.9 μg/mL) was 98%, the viability at 72 h ([1]; drug conc. 7.5 μg/mL) was 96% and the viability at 72 h ([1]; drug conc. 30 μg/mL) was 92%. For the same molecule, the viability at 72 h ([1]; drug conc. 120 μg/mL) was 102%, the Toxicity (uninfected H9 cells; drug conc. 1.9 μg/mL) was “non-T” and the Toxicity (uninfected H9 cells; drug conc. 7.5 μg/mL) was “non-T”. For the same molecule, the Toxicity (uninfected H9 cells; drug conc. 30 μg/mL) was “non-T” and the Toxicity (uninfected H9 cells; drug conc. 120 μg/mL) was “non-T”.
For O=C(O)P(O)(O)=S [TPFA, thiophosphonoformic acid], the IC50 (HSV-1 DNA polymerase) was 11.8 µM, the IC50 (HSV-2 DNA polymerase) was 11.3 µM and the “effectiveness of TPFA relative to PFA” value (HSV-2 DNA polymerase; HSV-2 enzyme, ratio of ID50 values of Table I) was “fifteen to twenty times less effective”. For the same molecule, the IC50 (human DNA polymerase α) was greater than 100 µM, the “toxicity to the human enzyme relative to PFA (therapeutic index)” value (human DNA polymerase α; HIV enzyme and human enzyme, Tables I and II) was “at a minimum, three times less toxic” and the “fold less active against the human enzyme than against the HIV enzyme (therapeutic index)” value (human DNA polymerase α; human DNA polymerase vs HIV enzyme of Table I) was “greater than 100 fold”. The remaining activity at 100 µM (human DNA polymerase α) was 72 ± 3%, the “% Control at 100 μM ± S.D.” value (human DNA polymerase δ) was 69 ± 6% and the IC50 (human DNA polymerase δ) was greater than 100 µM. For the same molecule, the viability at 72 h ([1]; drug conc. 0.1 μg/mL) was 113%, the viability at 72 h ([1]; drug conc. 0.5 μg/mL) was 113% and the viability at 72 h ([1]; drug conc. 2 μg/mL) was 110%. For the same molecule, the viability at 72 h ([1]; drug conc. 10 μg/mL) was 104%, the viability at 72 h ([1]; drug conc. 50 μg/mL) was 93% and the viability at 72 h ([1]; drug conc. 200 μg/mL) was 84%. The Toxicity (uninfected H9 cells; drug conc. 0.1 μg/mL) was “non-T”, the Toxicity (uninfected H9 cells; drug conc. 0.5 μg/mL) was “non-T” and the Toxicity (uninfected H9 cells; drug conc. 2 μg/mL) was “non-T”. For the same molecule, the Toxicity (uninfected H9 cells; drug conc. 10 μg/mL) was “non-T”, the Toxicity (uninfected H9 cells; drug conc. 50 μg/mL) was “non-T” and the Toxicity (uninfected H9 cells; drug conc. 200 μg/mL) was “non-T”.
